Results reported in patent US11571480B2, “Multi-ligand drug conjugates and uses thereof” (priority 2015, dated 2023).

How the values were obtained:
[1] = test system: ovarian cancer cell SKOV3; assay: Cytotoxicity test of conjugate LDC10B; assay type: cell-based, human; details: SKOV3, Incubation Time 30 min
Description: (§1) Culture medium: RPMI 1640 Medium, no folic acid
(§2) 1) human nasopharyngeal cancer cell line KB, melanoma cell line A375, human lung cancer cell H1299, chronic myeloid leukemia cell line K562, human lung cancer cell H460, ovarian cancer cell SKOV3, breast cancer cell line HCC1954, human gastric cancer cell N87, and human breast cancer cell SK-BR-3 were incubated at 37° C., 5% CO2 in RPMI 1640 medium containing 10% fetal bovine serum, the cells were passaged every 2-3 days.
(§3) 2) human nasopharyngeal cancer cell line KB, melanoma cell line A375, human lung cancer cell H1299, chronic myeloid leukemia cell line K562, human lung cancer cell H460, ovarian cancer cell SKOV3, breast cancer cell line HCC1954, human gastric cancer cell N87, and human breast cancer cell SK-BR-3 were plated at 1×10^3 cells per well (96-well plate) and incubated for 8-12 h at 37° C., 5% CO2.
(§4) 3) Stock solutions of LDC conjugates or controls were prepared in PBS solution. 100 μL/well of serially diluted LDC conjugates or controls was added to the test cells in the plates and incubated for 15-30 min at 37° C., 5% CO2. The culture medium in the wells was then removed by aspiration and the test cells were incubated in fresh culture medium without conjugates (150 μL/well) for 2-3 days at 37° C., 5% CO2.
(§5) 4) CellTiter 96® Aqueous One Solution Cell Proliferation Assay (Promega) was added to each well to measure the amount of […] cells, and each plate was incubated in an incubator for 1 h at 37° C., 5% CO2.
(§6) 5) Each plate was read at 490 nm on a microplate reader, and the cell survivals were compared for test cells with or without the treatment of LDC conjugates. The LDC drug concentrations that are required for 50% cell death (IC50 values) were determined.

[2] = test system: breast cancer cell line HCC1954; assay: Cytotoxicity test of conjugate LDC10B; assay type: cell-based, human; details: HCC1954, Incubation Time 30 min
Description: as §1, §2, §3, §4, §5, §6

[3] = test system: ovarian cancer cell SKOV3; assay: Cytotoxicity test of conjugate LDC11B; assay type: cell-based, human; details: SKOV3, incubated 15-30 min, then 2-3 days
Description: as §1
(§7) 1) human lung cancer cell H460, ovarian cancer cell SKOV3, human embryonic kidney cell 293A were incubated at 37° C., 5% CO2 in RPMI 1640 medium containing 10% fetal bovine serum, the cells were passaged every 2-3 days.
(§8) 2) human lung cancer cell H460, ovarian cancer cell SKOV3, human embryonic kidney cell 293A were plated at 1×10^3 cells per well (96-well plate) and incubated for 8-12 h at 37° C., 5% CO2.
as §4, with “control” for “controls”, “the” for “the test”, “plate” for “plates”
(§9) 4) CellTiter 96® Aqueous One Solution Cell Proliferation Assay (Promega) was added to each well to measure the amount of […] cells, and the plate was incubated in an incubator for 1 h at 37° C., 5% CO2.
(§10) 5) The plate was read at 490 nm on a microplate reader, and the cell survivals were compared for cells with or without the treatment of LDC conjugates. The LDC drug concentrations that are required for 50% cell death (IC50 values) were determined.

[4] = test system: human lung cancer cell H460; assay: Cytotoxicity test of conjugate LDC10H; assay type: cell-based; details: H460, incubated 15-30 min, then 2-3 days
Description: as §1
(§11) 1) human lung cancer cell H1299, ovarian cancer cell SKOV3, breast cancer cell line HCC1954, and human lung cancer cell H460 were incubated at 37° C., 5% CO2 in RPMI 1640 medium containing 10% fetal bovine serum, the cells were passaged every 2-3 days.
(§12) 2) human lung cancer cell H1299, ovarian cancer cell SKOV3, breast cancer cell line HCC1954, and human lung cancer cell H460 were plated at 1×10^3 cells per well (96-well plate) and incubated for 8-12 h at 37° C., 5% CO2.
as §4, with “control” for “controls”, “the” for “the test”, “plate” for “plates”
as §9
(§13) 5) the plate was read at 490 nm on a microplate reader, and the cell survivals were compared for cells with or without the treatment of LDC conjugates. The LDC drug concentrations that are required for 50% cell death (IC50 values) were determined.

[5] = test system: human lung cancer cell H1299; assay: Cytotoxicity test of conjugate LDC10H; assay type: cell-based; details: H1299, incubated 15-30 min, then 2-3 days
Description: as §1, §11, §12
as §4, with “control” for “controls”, “the” for “the test”, “plate” for “plates”
as §9, §13

[6] = test system: human lung cancer cell H460; assay: Cytotoxicity test of conjugate LDC1013; assay type: cell-based; details: H460, incubated 15-30 min, then 2-3 days
Description: as §1
(§14) 1) human nasopharyngeal cancer cell line KB, melanoma cell line A375, and human lung cancer cell H460 were incubated at 37° C., 5% CO2 in RPMI 1640 medium containing 10% fetal bovine serum, the cells were passaged every 2-3 days.
(§15) 2) human nasopharyngeal cancer cell line KB, melanoma cell line A375, and human lung cancer cell H460 were plated at 1×10^3 cells per well (96-well plate) and incubated for 8-12 h at 37° C., 5% CO2.
as §4, with “control” for “controls”, “the” for “the test”, “plate” for “plates”
as §9, §13

[7] = test system: human nasopharyngeal cancer cell line KB; assay: Cytotoxicity test of conjugate LDC1013; assay type: cell-based; details: incubated 15-30 min, then 2-3 days
Description: as §1, §14, §15
as §4, with “control” for “controls”, “the” for “the test”, “plate” for “plates”
as §9, §13

[8] = test system: melanoma cell line A375; assay: Cytotoxicity test of conjugate LDC1013; assay type: cell-based; details: A375, incubated 15-30 min, then 2-3 days
Description: as §1, §14, §15
as §4, with “control” for “controls”, “the” for “the test”, “plate” for “plates”
as §9, §13

[9] = test system: ovarian cancer cell SKOV3; assay: Cytotoxicity test of conjugate LDC10H; assay type: cell-based, human; details: SKOV3, incubated 15-30 min, then 2-3 days
Description: as §1, §11, §12
as §4, with “control” for “controls”, “the” for “the test”, “plate” for “plates”
as §9, §13

[10] = test system: breast cancer cell line HCC1954; assay: Cytotoxicity test of conjugate LDC10H; assay type: cell-based, human; details: HCC1954, incubated 15-30 min, then 2-3 days
Description: as §1, §11, §12
as §4, with “control” for “controls”, “the” for “the test”, “plate” for “plates”
as §9, §13

[11] = test system: human lung cancer cell H460; assay: Cytotoxicity test of conjugate LDC10B; assay type: cell-based; details: H460, Incubation Time 30 min
Description: as §1, §2, §3, §4, §5, §6

[12] = test system: human nasopharyngeal cancer cell line KB; assay: Cytotoxicity test of conjugate LDC10B; assay type: cell-based; details: Incubation Time 15 min
Description: as §1, §2, §3, §4, §5, §6

[13] = test system: human gastric cancer cell N87; assay: Cytotoxicity test of conjugate LDC10B; assay type: cell-based; details: N87, Incubation Time 30 min
Description: as §1, §2, §3, §4, §5, §6

[14] = test system: human lung cancer cell H1299; assay: Cytotoxicity test of conjugate LDC10B; assay type: cell-based; details: H1299, Incubation Time 30 min
Description: as §1, §2, §3, §4, §5, §6

[15] = test system: melanoma cell line A375; assay: Cytotoxicity test of conjugate LDC10B; assay type: cell-based; details: A375, Incubation Time 15 min
Description: as §1, §2, §3, §4, §5, §6

[16] = test system: human breast cancer cell SK-BR-3; assay: Cytotoxicity test of conjugate LDC10B; assay type: cell-based; details: SK-BR-3, Incubation Time 30 min
Description: as §1, §2, §3, §4, §5, §6

[17] = test system: chronic myeloid leukemia cell line K562; assay: Cytotoxicity test of conjugate LDC10B; assay type: cell-based; details: K562, Incubation Time 30 min
Description: as §1, §2, §3, §4, §5, §6

[18] = test system: human nasopharyngeal cancer cell line KB; assay: Cytotoxicity test of conjugate LDC13B; assay type: cell-based; details: KB, incubated 15-30 min, then 2-3 days
Description: as §1
1) human nasopharyngeal cancer cell line KB, human colon carcinoma HCT-116, human prostatic cancer cell PC-3, human gastric cancer cell line GTL-16, human endometrial cancer cell HEC-1A, and human gastric cancer cell N87 were incubated at 37° C., 5% CO2 in RPMI 1640 medium containing 10% fetal bovine serum, the cells were passaged every 2-3 days.
2) human nasopharyngeal cancer cell line KB, human colon carcinoma HCT-116, human prostatic cancer cell PC-3, human gastric cancer cell line GTL-16, human endometrial cancer cell HEC-1A, and human gastric cancer cell N87 were plated at 1×10^3 cells per well (96-well plate) and incubated for 8-12 h at 37° C., 5% CO2.
as §4, with “control” for “controls”, “the” for “the test”, “plate” for “plates”
as §9, §13

[19] = test system: human lung cancer cell H460; assay: Cytotoxicity test of conjugate LDC11B; assay type: cell-based; details: H460, incubated 15-30 min, then 2-3 days
Description: as §1, §7, §8
as §4, with “control” for “controls”, “the” for “the test”, “plate” for “plates”
as §9, §10

[20] = test system: human embryonic kidney cell 293A; assay: Cytotoxicity test of conjugate LDC11B; assay type: cell-based; details: incubated 15-30 min, then 2-3 days
Description: as §1, §7, §8
as §4, with “control” for “controls”, “the” for “the test”, “plate” for “plates”
as §9, §10

[21] = test system: Transplanted H460 tumor; assay: Inhibitory assay of conjugates LDC11A, LDC11B against xenograf tumors; assay type: in vivo, nude mice; details: H460 tumor, 10 mg/kg
Description: Animal: nude mice, aged 6-8 weeks, female
1) human large cell lung cancer cell H460, ovarian cancer cell SKOV3, breast cancer cell line HCC1954, and human breast cancer cell SK-BR-3 were incubated at 37° C., 5% CO2 in IMDM medium containing 10% fetal bovine serum, the cells were passaged every 2-3 days.
2) generation of tumors: 7×10^6 tumor cells were subcutaneously injected into the back of nude mice, and the mice were grouped for treatment after the tumor sizes were as large as about 100˜200 mm^3.
3) treatment: 3 mice/group, treated with LDC11A, LDC11B, as well as controls MMAE and PBS with doses of 5 and 10 mg/kg every 5 days, three injections.
4) the physical performance, body weights and tumor sizes of the animals were monitored. The number of animal death was recorded during the experiment.

[22] = Cytotoxicity test of conjugate LDC11B; assay type: cell-based, human; details: human, 293A embryonic kidney cells, incubated 15-30 min, then 2-3 days
Description: as §1, §7, §8
as §4, with “control” for “controls”, “the” for “the test”, “plate” for “plates”
as §9, §10

Folate-(PEG)3-MC-Val-Cit-PAB-MMAE [LDC1]
IC50 [1]: 102 nM
IC50 [2]: 94.4 nM
IC50 [3]: 295 nM
IC50 [4]: 137 nM
IC50 [5]: 186 nM
IC50 [6]: 9400 nM
IC50 [7]: 4000 nM
IC50 [8]: 37000 nM
IC50 [9]: 201 nM
IC50 [10]: 77.9 nM
IC50 [11]: 192 nM
IC50 [12]: 15000 nM
IC50 [13]: 239 nM
IC50 [14]: 262 nM
IC50 [15]: 10000 nM
IC50 [16]: 98.2 nM
IC50 [17]: 93.1 nM
IC50 [18]: 65 nM
IC50 [19]: 526 nM
IC50 [20]: 715 nM

CC[C@H](C)[C@@H]([C@@H](CC(=O)N1CCC[C@H]1[C@H](OC)[C@@H](C)C(=O)N[C@H](C)[C@@H](O)c1ccccc1)OC)N(C)C(=O)[C@@H](NC(=O)[C@H](C(C)C)N(C)C(=O)OCc1ccc(NC(=O)[C@H](CCCNC(N)=O)NC(=O)[C@@H](NC(=O)CCCCCN2C(=O)CC(SC[C@H](NC(=O)CNC(=O)[C@@H]3CCCN3C(=O)[C@H](CCCNC(=N)N)NC(=O)[C@H](CC(C)C)NC(=O)CNC(=O)[C@H](Cc3ccc(O)cc3)NC(=O)[C@H](CO)NC(=O)[C@H](Cc3c[nH]c4ccccc34)NC(=O)[C@H](Cc3c[nH]cn3)NC(=O)[C@@H](N)CCC(=O)O)C(=O)O)C2=O)C(C)C)cc1)C(C)C (stereo partly drawn) [LDC11A, P11-MC-Val-Cit-PAB-MMAE, reference compound]
animal death / toxicity (in words) [21]: dead after the first injection
Body weight of mice ([21]; Before Injection): 24.46 g
Body weight of mice ([21]; Five days after Injection 1): Death
Body weight of mice ([21]; Three days after Injection 1): 18.25 g
IC50 [3]: 341 nM
IC50 [19]: 667 nM
IC50 [22]: 1310 nM
